Experimental data reported in US12084436B2, “Heterocyclic compound” (Takeda Pharmaceutical Company Limited, priority 2019, dated 2024).

Biological target: T1, HDAC6 enzyme (Homo sapiens, UniProt Q9UBN7)
T1 construct: prepared by transducing full length HDAC6 gene into Sf-9 insect cells; GST; purchased SignalChem; host or cells: Sf-9 insect cells
T1 sequence (Q9UBN7 1-1215): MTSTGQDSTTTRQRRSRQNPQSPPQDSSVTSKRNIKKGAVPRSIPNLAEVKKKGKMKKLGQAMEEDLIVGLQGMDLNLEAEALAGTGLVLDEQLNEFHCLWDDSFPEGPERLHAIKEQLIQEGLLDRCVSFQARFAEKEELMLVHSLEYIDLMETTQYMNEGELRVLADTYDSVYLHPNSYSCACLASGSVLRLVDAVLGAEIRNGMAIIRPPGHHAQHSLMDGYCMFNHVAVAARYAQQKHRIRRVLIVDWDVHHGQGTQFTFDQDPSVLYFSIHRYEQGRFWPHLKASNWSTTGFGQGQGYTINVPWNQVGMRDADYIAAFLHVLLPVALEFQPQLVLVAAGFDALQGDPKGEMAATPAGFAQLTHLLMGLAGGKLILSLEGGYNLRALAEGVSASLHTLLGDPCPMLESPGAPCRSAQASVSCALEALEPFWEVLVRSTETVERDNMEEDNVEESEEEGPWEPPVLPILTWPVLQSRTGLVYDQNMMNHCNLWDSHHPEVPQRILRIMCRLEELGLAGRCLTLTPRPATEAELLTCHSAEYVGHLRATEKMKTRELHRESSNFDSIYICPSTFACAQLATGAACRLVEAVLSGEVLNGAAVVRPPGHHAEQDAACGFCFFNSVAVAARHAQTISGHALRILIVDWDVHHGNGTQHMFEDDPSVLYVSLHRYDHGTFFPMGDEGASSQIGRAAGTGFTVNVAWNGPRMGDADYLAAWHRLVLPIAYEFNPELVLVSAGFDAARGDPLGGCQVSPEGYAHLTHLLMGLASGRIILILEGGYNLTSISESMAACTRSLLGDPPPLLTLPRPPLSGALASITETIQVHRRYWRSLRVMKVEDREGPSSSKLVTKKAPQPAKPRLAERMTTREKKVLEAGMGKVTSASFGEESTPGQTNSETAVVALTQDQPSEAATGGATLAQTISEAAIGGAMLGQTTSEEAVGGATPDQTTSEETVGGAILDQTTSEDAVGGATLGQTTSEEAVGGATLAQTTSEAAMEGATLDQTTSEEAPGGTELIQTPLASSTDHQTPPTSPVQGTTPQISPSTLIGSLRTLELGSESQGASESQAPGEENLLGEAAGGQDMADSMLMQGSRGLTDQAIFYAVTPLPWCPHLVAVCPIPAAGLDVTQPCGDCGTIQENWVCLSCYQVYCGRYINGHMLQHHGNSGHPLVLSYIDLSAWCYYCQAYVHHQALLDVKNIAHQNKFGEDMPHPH
Test: HDAC6 enzyme inhibitory assay (HDAC-Glo I/II Assay kit, luminescence)
Type: biochemical
Conditions: 10 μM test compound; wells without enzyme = 100% inhibition; read-out: HDAC6 inhibitory rate (%) (10 μM)
How it was run: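 Full-length human HDAC6, GST-purified from Sf-9 cells, was preincubated with compound for 60 min at room temperature in Tris-HCl pH 7.5 buffer with glutathione and Tween-20. Substrate-developer was then added, and luminescence was read after 20 min at room temperature. Inhibition was expressed relative to no-enzyme wells, taken as 100% inhibition.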

| Compound | inhibition at 10 µM [%] |
| --- | --- |
| O=C(Cn1ccnc1-c1cc(F)cc(-c2nnc(C(F)F)o2)c1)N1CCCC1 [Example 33a, 2-(2-{3-[5-(difluoromethyl)-1,3,4-oxadiazol-2-yl]-5-fluorophenyl}-1H-imidazol-1-yl)-1-(pyrrolidin-1-yl)ethan-1-one] | 86 |
| O=C1c2cc(-c3nnc(C(F)F)o3)cnc2CN1Nc1c(F)c(F)c(F)c(F)c1F [Example 33c, 3-[5-(difluoromethyl)-1,3,4-oxadiazol-2-yl]-6-(pentafluoroanilino)-6,7-dihydro-5H-pyrrolo[3,4-b]pyridin-5-one] | 99 |
| CNC(=O)c1ccc(Cn2ccnc2-c2cc(F)cc(-c3nnc(C(F)F)o3)c2)cc1F [Example 34a, 4-[(2-{3-[5-(difluoromethyl)-1,3,4-oxadiazol-2-yl]-5-fluorophenyl}-1H-imidazol-1-yl)methyl]-2-fluoro-N-methylbenzamide] | 98 |
| O=C1NN(c2ccc(F)c(F)c2)Cc2ncc(-c3nnc(C(F)F)o3)cc21 [Example 34b, 3-[5-(difluoromethyl)-1,3,4-oxadiazol-2-yl]-7-(3,4-difluorophenyl)-7,8-dihydropyrido[2,3-d]pyridazin-5(6H)-one] | 100 |
| Cn1ccc(OCc2ccccc2)c(-c2cc(F)cc(-c3nnc(C(F)F)o3)c2)c1=O [Example 35a, 4-(benzyloxy)-3-{3-[5-(difluoromethyl)-1,3,4-oxadiazol-2-yl]-5-fluorophenyl}-1-methylpyridin-2(1H)-one] | 98 |
| O=C1NN(c2ccc(F)c(Cl)c2)Cc2ncc(-c3nnc(C(F)F)o3)cc21 [Example 35b, 7-(3-chloro-4-fluorophenyl)-3-[5-(difluoromethyl)-1,3,4-oxadiazol-2-yl]-7,8-dihydropyrido[2,3-d]pyridazin-5(6H)-one] | 100 |
| FC(F)c1nnc(-c2ccnc(-c3nccn3Cc3ccccc3)c2)o1 [Example 36a, 2-(1-benzyl-1H-imidazol-2-yl)-4-[5-(difluoromethyl)-1,3,4-oxadiazol-2-yl]pyridine] | 101 |
| FC(F)c1nnc(-c2cncc(-c3nccn3Cc3ccccc3)c2)o1 [Example 37a, 3-(1-benzyl-1H-imidazol-2-yl)-5-[5-(difluoromethyl)-1,3,4-oxadiazol-2-yl]pyridine] | 99 |
| FC(F)c1nnc(-c2ccnc(-c3ncc(Cl)n3Cc3ccccn3)c2)o1 [Example 38a, 2-[5-chloro-1-[(pyridin-2-yl)methyl]-1H-imidazol-2-yl}-4-[5-(difluoromethyl)-1,3,4-oxadiazol-2-yl]pyridine] | 98 |
| CN1C(=O)c2cc(-c3nnc(C(F)F)o3)cnc2CC1(C)c1ccc(F)c(F)c1 (stereo not shown) [Example 38b, 3-[5-(difluoromethyl)-1,3,4-oxadiazol-2-yl]-7-(3,4-difluorophenyl)-6,7-dimethyl-7,8-dihydro-1,6-naphthyridin-5(6H)-one] | 101 |
| FC(F)c1nnc(-c2ccnc(-c3nc(Cl)cn3Cc3ccccn3)c2)o1 [Example 39a, 2-{4-chloro-1-[(pyridin-2-yl)methyl]-1H-imidazol-2-yl}-4-[5-(difluoromethyl)-1,3,4-oxadiazol-2-yl]pyridine] | 98 |
| FC(F)c1nnc(-c2ccnc(-c3nc(Cl)c(Cl)n3Cc3ccccn3)c2)o1 [Example 40a, 2-{4,5-dichloro-1-[(pyridin-2-yl)methyl]-1H-imidazol-2-yl}-4-[5-(difluoromethyl)-1,3,4-oxadiazol-2-yl]pyridine] | 98 |
| O=C1OCC(Cc2ccccn2)N1c1cc(F)cc(-c2nnc(C(F)F)o2)c1 (stereo not shown) [Example 41a, 3-{3-[5-(difluoromethyl)-1,3,4-oxadiazol-2-yl)-5-fluorophenyl}-4-[(pyridin-2-yl)methyl]-1,3-oxazolidin-2-one] | 21 |
| O=C1COCC(Cc2ccccn2)N1c1cc(F)cc(-c2nnc(C(F)F)o2)c1 (stereo not shown) [Example 42a] | 68 |
| Fc1cc(-c2nnc(C(F)F)o2)cc(-c2nccn2Cc2cnccn2)c1 [Example 43a, 2-[(2-{3-[5-(difluoromethyl)-1,3,4-oxadiazol-2-yl]-5-fluorophenyl}-1H-imidazol-1-yl)methyl]pyrazine] | 98 |

Other lines, results leading:

| inhibition at 10 µM [%] | Compound |
| --- | --- |
| 95 | O=C1c2cc(-c3nnc(C(F)F)o3)ccc2CN1Nc1c(F)c(F)c(F)c(F)c1F [Example 32c, 6-[5-(difluoromethyl)-1,3,4-oxadiazol-2-yl]-2-(pentafluoroanilino)-2,3-dihydro-1H-isoindol-1-one] |
| 100 | CN1C(=O)c2cc(-c3nnc(C(F)F)o3)ccc2CC1c1ccc(F)cc1 (stereo not shown) [Example 33b, 7-[5-(difluoromethyl)-1,3,4-oxadiazol-2-yl]-3-(4-fluorophenyl)-2-methyl-3,4-dihydroisoquinolin-1(2H)-one] |
| 92 | O=C1c2cc(-c3nnc(C(F)F)o3)ccc2CN1NC1CCOCC1 [Example 34c, 6-[5-(difluoromethyl)-1,3,4-oxadiazol-2-yl]-2-[(oxan-4-yl)amino]-2,3-dihydro-1H-isoindol-1-one] |
| 93 | O=C1c2cc(-c3nnc(C(F)F)o3)ccc2CN1NC1CCC(F)(F)CC1 [Example 35c, 2-[(4,4-difluorocyclohexyl)amino]-6-[5-(difluoromethyl)-1,3,4-oxadiazol-2-yl]-2,3-dihydro-1H-isoindol-1-one] |
| 98 | O=C1c2cc(-c3nnc(C(F)F)o3)ccc2CN1Nc1ccc(F)c(F)c1 [Example 36c, 2-(3,4-difluoroanilino)-6-[5-(difluoromethyl)-1,3,4-oxadiazol-2-yl]-2,3-dihydro-1H-isoindol-1-one] |
| 99 | O=C1c2cc(-c3nnc(C(F)F)o3)ccc2CN1Nc1ccc(F)c(Cl)c1 [Example 37c, 2-(3-chloro-4-fluoroanilino)-6-[5-(difluoromethyl)-1,3,4-oxadiazol-2-yl]-2,3-dihydro-1H-isoindol-1-one] |
| 97 | CN(C(=O)OC(C)(C)C)N1Cc2ccc(-c3nnc(C(F)F)o3)cc2C1=O [Example 38c, tert-butyl {6-[5-(difluoromethyl)-1,3,4-oxadiazol-2-yl]-1-oxo-1,3-dihydro-2H-isoindol-2-yl}methylcarbamate] |
| 88 | O=C1c2cc(-c3nnc(C(F)F)o3)ccc2CN1Nc1ccc(F)cn1 [Example 39c, 6-[5-(difluoromethyl)-1,3,4-oxadiazol-2-yl]-2-[(5-fluoropyridin-2-yl)amino]-2,3-dihydro-1H-isoindol-1-one] |
| 101 | CN(Cc1ccc(F)c(F)c1)N1Cc2ccc(-c3nnc(C(F)F)o3)cc2C1=O [Example 40c, 6-[5-(difluoromethyl)-1,3,4-oxadiazol-2-yl]-2-{[(3,4-difluorophenyl)methyl](methyl)amino}-2,3-dihydro-1H-isoindol-1-one] |
| 99 | CN(CC1CCOCC1)N1Cc2ccc(-c3nnc(C(F)F)o3)cc2C1=O [Example 41c, 6-[5-(difluoromethyl)-1,3,4-oxadiazol-2-yl]-2-{methyl[(oxan-4-yl)methyl]amino}-2,3-dihydro-1H-isoindol-1-one] |
| 98 | CN(Cc1cc(Cl)ccc1O)N1Cc2ccc(-c3nnc(C(F)F)o3)cc2C1=O [Example 42c, 2-{[(5-chloro-2-hydroxyphenyl)methyl](methyl)amino}-6-[5-(difluoromethyl)-1,3,4-oxadiazol-2-yl]-2,3-dihydro-1H-isoindol-1-one] |
| 100 | CN1C(=O)c2cc(-c3nnc(C(F)F)o3)ccc2OC1(C)c1cccnc1 (stereo not shown) [Example 43b, 6-[5-(difluoromethyl)-1,3,4-oxadiazol-2-yl]-2,3-dimethyl-2-(pyridin-3-yl)-2,3-dihydro-4H-1,3-benzoxazin-4-one] |
| 94 | CCOC(=O)C(C)CN(C)N1Cc2ccc(-c3nnc(C(F)F)o3)cc2C1=O (stereo not shown) [Example 43c, ethyl 3-[{6-[5-(difluoromethyl)-1,3,4-oxadiazol-2-yl]-1-oxo-1,3-dihydro-2H-isoindol-2-yl}(methyl)amino]-2-methylpropanoate] |
